Data reported in US20260265195A1, “SARM1 MODULATORS, PREPARATIONS, AND USES THEREOF” (SIRONAX LTD, priority 2022, published 2026).

Target: T1, SARM1 (50-724) (Homo sapiens, UniProt Q6SZW1)
T1 construct: Purified SARM1 (50-724) with a final concentration of 2 nM
T1 sequence (Q6SZW1 50-724): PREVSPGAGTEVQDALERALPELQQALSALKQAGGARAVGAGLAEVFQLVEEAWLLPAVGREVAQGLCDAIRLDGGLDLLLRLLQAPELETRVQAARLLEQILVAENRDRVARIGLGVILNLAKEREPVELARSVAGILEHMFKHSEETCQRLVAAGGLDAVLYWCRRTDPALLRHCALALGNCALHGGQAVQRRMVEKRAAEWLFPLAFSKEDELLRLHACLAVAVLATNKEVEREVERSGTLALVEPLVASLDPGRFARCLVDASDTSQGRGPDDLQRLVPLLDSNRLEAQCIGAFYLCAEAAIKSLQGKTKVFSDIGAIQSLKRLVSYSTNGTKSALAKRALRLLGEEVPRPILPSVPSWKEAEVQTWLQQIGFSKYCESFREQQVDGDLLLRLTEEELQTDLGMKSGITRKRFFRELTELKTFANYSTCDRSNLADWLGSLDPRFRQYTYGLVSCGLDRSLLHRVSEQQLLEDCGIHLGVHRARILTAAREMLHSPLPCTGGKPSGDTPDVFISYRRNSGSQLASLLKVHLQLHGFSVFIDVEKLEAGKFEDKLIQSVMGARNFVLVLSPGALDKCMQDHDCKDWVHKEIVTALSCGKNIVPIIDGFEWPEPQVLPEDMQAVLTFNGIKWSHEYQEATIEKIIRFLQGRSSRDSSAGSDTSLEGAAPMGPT
Test: SARM1 (50-724) enzymatic assay (NMN-activated NAD+ hydrolysis, LC-MS/MS readout)
Type: biochemical
Conditions: purified SARM1 (50-724) 2 nM, 200 μM NMN activator, 100 μM NAD+ substrate, 1 h at room temperature, read-out: IC50 (SARM1 inhibitory activity)
How it was run: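 Purified human SARM1 (50-724), 2 nM final in DPBS, pre-incubated 15 min at RT with compound (1% DMSO), then started with 200 μM NMN activator and 100 μM NAD+. After 1 h at RT, quenched with 70% acetonitrile; analysed by LC-MS/MS.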

Compound	IC50 [nM]
O=C(c1nc2cc(C(F)(F)F)ccc2[nH]1)N(CC(F)(F)CO)c1ccc(F)cc1Cl [Compound 216, N-(2-chloro-4-fluorophenyl)-N-(2,2-difluoro-3-hydroxypropyl)-5-(trifluoromethyl)-1H-benzo[d]imidazole-2-carboxamide]	≤ 100
O=C(c1nc2cc(C(F)(F)F)ccc2[nH]1)N(CC(F)(F)CO)c1cc(F)cc(F)c1Cl [Compound 218, N-(2-chloro-3,5-difluorophenyl)-N-(2,2-difluoro-3-hydroxypropyl)-5-(trifluoromethyl)-1H-benzo[d]imidazole-2-carboxamide]	≤ 100
O=C(c1nc2cc(C(F)(F)F)ccc2[nH]1)N(CC(F)(F)CO)c1cc(F)ccc1Cl [Compound 219, N-(2-chloro-5-fluorophenyl)-N-(2,2-difluoro-3-hydroxypropyl)-5-(trifluoromethyl)-1H-benzo[d]imidazole-2-carboxamide]	101 to 500
O=C(c1nc2cc(C(F)(F)F)ccc2[nH]1)N(CC(F)(F)CO)c1cc(F)c(F)cc1Cl [Compound 220, N-(2-chloro-4,5-difluorophenyl)-N-(2,2-difluoro-3-hydroxypropyl)-5-(trifluoromethyl)-1H-benzo[d]imidazole-2-carboxamide]	101 to 500
CC(C)(C)c1ccc2[nH]c(C(=O)N(CC3(F)COC3)c3[nH]c(=O)ccc3Cl)nc2c1 [Compound 221, 5-(tert-butyl)-N-(3-chloro-6-oxo-1,6-dihydropyridin-2-yl)-N-((3-fluorooxetan-3-yl)methyl)-1H-benzo[d]imidazole-2-carboxamide]	≤ 100
O=C(c1nc2cc(C3CC3)ccc2[nH]1)N(CC(F)(F)CO)c1ccc(F)c(F)c1Cl [Compound 222]	≤ 100
CC1(c2ccc3[nH]c(C(=O)N(CC(F)(F)CO)c4cccc(F)c4Cl)nc3c2)COC1 [Compound 223, N-(2-chloro-3-fluorophenyl)-N-(2,2-difluoro-3-hydroxypropyl)-5-(3-methyloxetan-3-yl)-1H-benzo[d]imidazole-2-carboxamide]	≤ 100
CS(=N)(=O)CCCN(C(=O)c1nc2cc(C(F)(F)F)ccc2[nH]1)c1cccc(F)c1Cl (centres unmarked) [Compound 224, N-(2-chloro-3-fluorophenyl)-N-(3-(S-methylsulfonimidoyl)propyl)-5-(trifluoromethyl)-1H-benzo[d]imidazole-2-carboxamide]	≤ 100
CN=S(C)(=O)CCCN(C(=O)c1nc2cc(C(F)(F)F)ccc2[nH]1)c1cccc(F)c1Cl (centres unmarked) [Compound 225, N-(2-chloro-3-fluorophenyl)-N-(3-(N,S-dimethylsulfonimidoyl)propyl)-5-(trifluoromethyl)-1H-benzo[d]imidazole-2-carboxamide]	≤ 100
CS(=O)(=O)CCCN(C(=O)c1nc2cc(C(F)(F)F)ccc2[nH]1)c1cccc(F)c1Br [Compound 227, N-(2-bromo-3-fluorophenyl)-N-(3-(methylsulfonyl)propyl)-5-(trifluoromethyl)-1H-benzo[d]imidazole-2-carboxamide]	≤ 100
CS(=O)(=O)CCN(C(=O)c1nc2cc(C(F)(F)F)ccc2[nH]1)c1cccc(F)c1Cl [Compound 229, N-(2-chloro-3-fluorophenyl)-N-(2-(methylsulfonyl)ethyl)-5-(trifluoromethyl)-1H-benzo[d]imidazole-2-carboxamide]	≤ 100
NC(=O)C(F)(F)CN(C(=O)c1nc2cc(Cl)cc(F)c2[nH]1)c1ccc(F)c(F)c1Cl [Compound 231]	≤ 100
O=C(c1nc2cc(Cl)cc(F)c2[nH]1)N(CC(F)(F)CO)c1cccc(F)c1Cl [Compound 232, 5-chloro-N-(2-chloro-3-fluorophenyl)-N-(2,2-difluoro-3-hydroxypropyl)-7-fluoro-1H-benzo[d]imidazole-2-carboxamide]	≤ 100
O=C(c1nc2cc(Cl)cc(F)c2[nH]1)N(CC(F)(F)CO)c1ccc(F)c(F)c1Cl [Compound 233]	≤ 100
NC(=O)C(F)(F)CN(C(=O)c1nc2cc(Cl)cc(F)c2[nH]1)c1cccc(F)c1Cl [Compound 234]	≤ 100
O=C(c1nc2cc(Cl)cc(Cl)c2[nH]1)N(CC(F)(F)CO)c1cccc(F)c1Cl [Compound 235]	101 to 500
O=C(c1nc2c(F)c(Cl)ccc2[nH]1)N(CC(F)(F)CO)c1cccc(F)c1Cl [Compound 236]	≤ 100
CN(C(=O)c1nc2cc(C(F)(F)F)ccc2[nH]1)c1ccncc1OC(F)(F)F [Compound 237, N-methyl-N-(3-(trifluoromethoxy)pyridin-4-yl)-5-(trifluoromethyl)-1H-benzo[d]imidazole-2-carboxamide]	501 to 1000
CC1(O)CC(N(C(=O)c2nc3cc(C(F)(F)F)ccc3[nH]2)c2cccc(F)c2Cl)C1 (centres unmarked) [Compound 239, N-(2-chloro-3-fluorophenyl)-N-(3-hydroxy-3-methylcyclobutyl)-5-(trifluoromethyl)-1H-benzo[d]imidazole-2-carboxamide]	101 to 500
Cc1c(F)cncc1N(CCO)C(=O)c1nc2cc(C(F)(F)F)ccc2[nH]1 [compound 169]	101 to 500
